Test results taken from ChEMBL document CHEMBL1201862, “PubChem BioAssay data set” (2004).
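Five concentrations, 48 hours, 96-well plates. GI50 is the concentration that inhibits growth by half.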 Activity calls are given as the source filed them. Cut-off read from the data, not from the text of the source: active = GI50 up to about 1.1 µM and inactive = higher.

What was measured:
Test in all cases: growth of human tumour cells (NCI), 48 h
[1] = tested on: SK-OV-3
[2] = tested on: CCRF-CEM
[3] = tested on: HT-29
[4] = tested on: OVCAR-5
[5] = tested on: IGROV-1
[6] = tested on: ACHN
[7] = tested on: HCC 2998
[8] = tested on: OVCAR-8
[9] = tested on: RXF 393
[10] = tested on: SNB-19
[11] = tested on: LOX IMVI
[12] = tested on: OVCAR-4
[13] = tested on: K562
[14] = tested on: SF-539
[15] = tested on: COLO 205
[16] = tested on: RPMI-8226
[17] = tested on: SK-MEL-28
[18] = tested on: SR

| Compound | GI50 [1] | GI50 [2] | GI50 [3] | GI50 [4] | GI50 [5] | GI50 [6] | GI50 [7] | GI50 [8] | GI50 [9] | GI50 [10] | GI50 [11] | GI50 [12] | GI50 [13] | GI50 [14] | GI50 [15] | GI50 [16] | GI50 [17] | GI50 [18] |
| --- | --- | --- | --- | --- | --- | --- | --- | --- | --- | --- | --- | --- | --- | --- | --- | --- | --- | --- |
| CCc1c(OC(C)=O)c2c(NC3OC(COC(C)=O)C(OC(C)=O)C(OC(C)=O)C3OC(C)=O)nc(SC)nc2oc1=O (stereo not drawn) | > 100 µM (inactive) | > 100 µM (inactive) | > 100 µM (inactive) | > 100 µM (inactive) | > 100 µM (inactive) | > 100 µM (inactive) | > 100 µM (inactive) | > 100 µM (inactive) | > 100 µM (inactive) | > 100 µM (inactive) | > 100 µM (inactive) | > 100 µM (inactive) | > 100 µM (inactive) | > 100 µM (inactive) | > 100 µM (inactive) | > 100 µM (inactive) | – | – |
| CNC(=O)C1CCc2nnc(-c3ccccc3)n21 (stereo not drawn) | > 100 µM (inactive) | > 100 µM (inactive) | – | – | > 100 µM (inactive) | > 100 µM (inactive) | > 100 µM (inactive) | – | > 100 µM (inactive) | > 100 µM (inactive) | – | > 100 µM (inactive) | > 100 µM (inactive) | > 100 µM (inactive) | > 100 µM (inactive) | > 100 µM (inactive) | > 100 µM (inactive) | > 100 µM (inactive) |
| CC(C)=CC(=O)Cc1nc2ccc([N+](=O)[O-])cc2[nH]c1=O | > 100 µM (inactive) | – | > 100 µM (inactive) | > 100 µM (inactive) | > 100 µM (inactive) | > 100 µM (inactive) | – | > 100 µM (inactive) | > 100 µM (inactive) | > 100 µM (inactive) | > 100 µM (inactive) | > 100 µM (inactive) | 83.8 µM (inactive) | > 100 µM (inactive) | > 100 µM (inactive) | 17.3 µM (inactive) | > 100 µM (inactive) | – |
| CN(C)/C(F)=P\C(F)(F)F (stereo not drawn) | > 100 µM (inactive) | > 100 µM (inactive) | > 100 µM (inactive) | > 100 µM (inactive) | > 100 µM (inactive) | > 100 µM (inactive) | > 100 µM (inactive) | > 100 µM (inactive) | > 100 µM (inactive) | > 100 µM (inactive) | > 100 µM (inactive) | > 100 µM (inactive) | > 100 µM (inactive) | > 100 µM (inactive) | > 100 µM (inactive) | > 100 µM (inactive) | > 100 µM (inactive) | – |
| COC(=O)C1CC/C(=N/c2ccc(C)cc2C)N1 (stereo not drawn) | > 100 µM (inactive) | > 100 µM (inactive) | > 100 µM (inactive) | > 100 µM (inactive) | > 100 µM (inactive) | > 100 µM (inactive) | > 100 µM (inactive) | > 100 µM (inactive) | – | > 100 µM (inactive) | > 100 µM (inactive) | > 100 µM (inactive) | > 100 µM (inactive) | – | > 100 µM (inactive) | > 100 µM (inactive) | > 100 µM (inactive) | – |
| O=[N+]([O-])c1ccc(Cl)c(C2SCc3nc4ccccc4n32)c1 (stereo not drawn) | 36.6 µM (inactive) | 28 µM (inactive) | 36 µM (inactive) | 27.4 µM (inactive) | 46.2 µM (inactive) | 44.9 µM (inactive) | 71.4 µM (inactive) | 43.3 µM (inactive) | 33 µM (inactive) | 41.5 µM (inactive) | – | – | 27.7 µM (inactive) | 31.9 µM (inactive) | 37.6 µM (inactive) | 31.2 µM (inactive) | 40.6 µM (inactive) | 32.1 µM (inactive) |
| CN(C)CCn1cnc2ncccc2c1=O | > 100 µM (inactive) | > 100 µM (inactive) | > 100 µM (inactive) | > 100 µM (inactive) | > 100 µM (inactive) | > 100 µM (inactive) | > 100 µM (inactive) | > 100 µM (inactive) | > 100 µM (inactive) | > 100 µM (inactive) | > 100 µM (inactive) | > 100 µM (inactive) | > 100 µM (inactive) | > 100 µM (inactive) | > 100 µM (inactive) | – | > 100 µM (inactive) | > 100 µM (inactive) |
| O=C(NC1CCCC1=O)c1ccccc1 (stereo not drawn) | > 100 µM (inactive) | > 100 µM (inactive) | > 100 µM (inactive) | > 100 µM (inactive) | > 100 µM (inactive) | > 100 µM (inactive) | – | > 100 µM (inactive) | > 100 µM (inactive) | > 100 µM (inactive) | – | > 100 µM (inactive) | > 100 µM (inactive) | > 100 µM (inactive) | – | – | > 100 µM (inactive) | > 100 µM (inactive) |
| CC(=O)Nc1ccc(/C=C/C(=O)c2sc(-c3nc(C)c(C(=O)/C=C/c4ccc(NC(C)=O)cc4)s3)nc2C)cc1 | > 100 µM (inactive) | > 100 µM (inactive) | > 100 µM (inactive) | > 100 µM (inactive) | > 100 µM (inactive) | > 100 µM (inactive) | > 100 µM (inactive) | > 100 µM (inactive) | > 100 µM (inactive) | > 100 µM (inactive) | > 100 µM (inactive) | > 100 µM (inactive) | > 100 µM (inactive) | > 100 µM (inactive) | > 100 µM (inactive) | – | > 100 µM (inactive) | > 100 µM (inactive) |
| Brc1ccc(-c2cc3c(cc2C2SCCS2)OCO3)cc1 | 21.3 µM (inactive) | 19.3 µM (inactive) | 33.3 µM (inactive) | 16.6 µM (inactive) | 37.2 µM (inactive) | 16.5 µM (inactive) | 29 µM (inactive) | 50.1 µM (inactive) | 12.9 µM (inactive) | 55.5 µM (inactive) | 0.359 µM (active) | 21.6 µM (inactive) | 15.2 µM (inactive) | 11.5 µM (inactive) | 27.3 µM (inactive) | – | > 100 µM (inactive) | 18.4 µM (inactive) |
| CC(C)(C)c1ccc2c(c1)S(=O)(=O)Nc1ccc(Cl)cc1NS(=O)(=O)c1cc(C(C)(C)C)ccc1OCCOCCOCCO2 | 33 µM (inactive) | > 100 µM (inactive) | 99.3 µM (inactive) | > 100 µM (inactive) | 38 µM (inactive) | 42.1 µM (inactive) | > 100 µM (inactive) | 35 µM (inactive) | 19.8 µM (inactive) | 62.2 µM (inactive) | > 100 µM (inactive) | 5.69 µM (inactive) | > 100 µM (inactive) | 23.5 µM (inactive) | > 100 µM (inactive) | – | > 100 µM (inactive) | – |
| O=C(CC1(O)C(=O)Nc2ccccc21)c1ccc(F)cc1 (stereo not drawn) | > 100 µM (inactive) | – | > 100 µM (inactive) | > 100 µM (inactive) | > 100 µM (inactive) | > 100 µM (inactive) | – | > 100 µM (inactive) | > 100 µM (inactive) | > 100 µM (inactive) | > 100 µM (inactive) | > 100 µM (inactive) | > 100 µM (inactive) | > 100 µM (inactive) | > 100 µM (inactive) | > 100 µM (inactive) | > 100 µM (inactive) | – |
| Cc1ccc(N2C(=O)/C(=C/c3ccc(N(CCC#N)CCC#N)cc3C)N=C2c2cc([N+](=O)[O-])ccc2Cl)cc1 | > 100 µM (inactive) | > 100 µM (inactive) | > 100 µM (inactive) | > 100 µM (inactive) | > 100 µM (inactive) | > 100 µM (inactive) | > 100 µM (inactive) | > 100 µM (inactive) | – | > 100 µM (inactive) | – | > 100 µM (inactive) | > 100 µM (inactive) | > 100 µM (inactive) | > 100 µM (inactive) | > 100 µM (inactive) | > 100 µM (inactive) | 58.2 µM (inactive) |
| O=C1NC(=O)C2C1C1C=C3c4ccccc4N(c4ccccc4)C32[C@H]2C(=O)NC(=O)[C@@H]12 (stereo partly drawn) | > 100 µM (inactive) | > 100 µM (inactive) | > 100 µM (inactive) | > 100 µM (inactive) | > 100 µM (inactive) | > 100 µM (inactive) | > 100 µM (inactive) | > 100 µM (inactive) | – | > 100 µM (inactive) | > 100 µM (inactive) | > 100 µM (inactive) | > 100 µM (inactive) | > 100 µM (inactive) | > 100 µM (inactive) | > 100 µM (inactive) | > 100 µM (inactive) | – |
| CC(c1ccc2c(c1)CCC1C2CC2OC23CC=CC(=O)[C@]13C)C1C[C@]2(C)O[C@]2(C)[C@H](O)O1 (stereo partly drawn) | > 100 µM (inactive) | 15.4 µM (inactive) | 47.1 µM (inactive) | > 100 µM (inactive) | 90.6 µM (inactive) | 33.7 µM (inactive) | 83.4 µM (inactive) | 37 µM (inactive) | 11.7 µM (inactive) | 15.9 µM (inactive) | 20.1 µM (inactive) | – | 3.14 µM (inactive) | 82.4 µM (inactive) | 71.9 µM (inactive) | 2 µM (inactive) | 50.8 µM (inactive) | 13.1 µM (inactive) |
| COc1ccc(/C=C2\CCc3ccccc3C2=O)cc1OC | 18.7 µM (inactive) | 24.8 µM (inactive) | 27.8 µM (inactive) | 67.3 µM (inactive) | 27.4 µM (inactive) | 24.5 µM (inactive) | 45.5 µM (inactive) | 32.1 µM (inactive) | – | 46 µM (inactive) | – | 17.8 µM (inactive) | 23.2 µM (inactive) | 22.3 µM (inactive) | 19.5 µM (inactive) | 13.9 µM (inactive) | 25.3 µM (inactive) | – |
| Nc1nc(=O)n([C@@H]2CC[C@H](CO)O2)cc1F | > 100 µM (inactive) | > 100 µM (inactive) | > 100 µM (inactive) | > 100 µM (inactive) | – | > 100 µM (inactive) | 42.8 µM (inactive) | > 100 µM (inactive) | > 100 µM (inactive) | > 100 µM (inactive) | > 100 µM (inactive) | > 100 µM (inactive) | > 100 µM (inactive) | – | > 100 µM (inactive) | > 100 µM (inactive) | > 100 µM (inactive) | – |
